Test results published in US11292807B2 (OCEANS LTD., priority 2015, dated 2022).
Read-outs that look alike come from different tables or passages of the source.

Experiments:
[1] = tested on: MDA-MB; conditions: MDA-MB
[2] = tested on: MDA-MB; experiment: cells; conditions: Homo sapiens, read-out: Average cell viability, MDA-MB
[3] = tested on: PC3; experiment: CIMA assay, cell viability, PC3; conditions: for Fold change in viability AVG: PC3
[4] = tested on: U373 (glioblastoma-astrocytoma); experiment: CIMA assay, cell viability, U373; conditions: for Fold change in viability AVG: U373
[5] = tested on: SKOV3 (ovarian adenocarcinoma); experiment: CIMA assay, cell viability, SKOV3; conditions: for Fold change in viability AVG: SKOV
[6] = tested on: THP-1 (acute monocytic leukemia); experiment: CIMA assay, cell viability, THP-1; conditions: for Fold change in viability AVG: THP-1
[7] = CIMA assay, cell viability, CCD1079SK; conditions: human, Average cell viability, CCD
Protocol: (§1) Stock solutions of the extracts were prepared in dimethylsulfoxide (DMSO) at 10 mg/mL and stored in 200 μl aliquots at −20° C. until analysis. This preparation ensured that the DMSO delivered to cells in culture never exceeded 1%.
(§2) Prepared extracts were assessed following chronic exposure conditions in which cells were seeded at 2×10^3 cells/well (96 well-plate) and incubated with test compounds for 72 h. Each compound was evaluated over a range of concentrations (0, 10, 25, 50 or 100 μg/ml). Cell proliferation was initially assessed using a standard colorimetric indicator of metabolic activity (CIMA) assay. In this assay, tetrazole reduction was evaluated as a measure of metabolic function that evaluates mitochondrial activity to determine the extent of cell proliferation within a culture. This assay is based on the reduction of yellow tetrazolium salt to purple formazan by mitochondrial reductases enzyme in viable cells, resulting in a color changed that confers a change in absorbance.

[8] = tested on: CCD1079SK (fibroblast, noncancerous but proliferating); experiment: CIMA assay, cell viability, CCD1079SK; conditions: CCD
Protocol: as §1, §2

[9] = tested on: A549 (lung carcinoma); experiment: CIMA assay (colorimetric indicator of metabolic activity), cell viability, A549; conditions: for Fold change in viability AVG: A549

CC/C=C\C/C=C\C/C=C\C/C=C\C/C=C\CCCC(=O)OCC(COC1OC(CO)C(O)C(O)C1O)OC(=O)CCC/C=C\C/C=C\C/C=C\C/C=C\C/C=C\CC (stereo not shown) [Compound 7, MGDG C20:5/C20:5]
MDA-MB AVG ([1]; sample at 1 ug/mL): 1.16 | MDA-MB AVG ([1]; sample at 10 ug/mL): 1.13 | MDA-MB AVG ([1]; sample at 50 ug/mL): 0.30 | MDA-MB AVG ([1]; sample at 100 ug/mL): 0.27 | Fold change in viability AVG ([1]; 1 ug/mL): 1.16 | Fold change in viability AVG ([1]; 10 ug/mL): 1.13 | Fold change in viability AVG ([1]; 50 ug/mL): 0.30 | Fold change in viability AVG ([1]; 100 ug/mL): 0.27 | viability at 1 µg/mL ([2]; 1 ug/mL): 106% | viability at 10 µg/mL ([2]; 10 ug/mL): 104% | viability at 50 µg/mL ([2]; 50 ug/mL): 27% | viability at 100 µg/mL ([2]; 100 ug/mL): 24% | viability at 1 µg/mL ([3]; Homo sapiens, PC-3, read-out: Average cell viability, PC3, 1 ug/mL): 107% | viability at 10 µg/mL ([3]; Homo sapiens, PC-3, read-out: Average cell viability, PC3, 10 ug/mL): 103% | viability at 50 µg/mL ([3]; Homo sapiens, PC-3, read-out: Average cell viability, PC3, 50 ug/mL): 14% | viability at 100 µg/mL ([3]; Homo sapiens, PC-3, read-out: Average cell viability, PC3, 100 ug/mL): 12% | PC3 AVG ([3]; PC3, sample at 1 ug/mL): 1.11 | PC3 AVG ([3]; PC3, sample at 10 ug/mL): 1.07 | PC3 AVG ([3]; PC3, sample at 50 ug/mL): 0.14 | PC3 AVG ([3]; PC3, sample at 100 ug/mL): 0.13 | Fold change in viability AVG ([3]; 1 ug/mL): 1.11 | Fold change in viability AVG ([3]; 10 ug/mL): 1.07 | Fold change in viability AVG ([3]; 50 ug/mL): 0.14 | Fold change in viability AVG ([3]; 100 ug/mL): 0.13 | viability at 1 µg/mL ([4]; Homo sapiens, U373 MG, read-out: Average cell viability, U373, 1 ug/mL): 120% | viability at 10 µg/mL ([4]; Homo sapiens, U373 MG, read-out: Average cell viability, U373, 10 ug/mL): 108% | viability at 50 µg/mL ([4]; Homo sapiens, U373 MG, read-out: Average cell viability, U373, 50 ug/mL): 6% | viability at 100 µg/mL ([4]; Homo sapiens, U373 MG, read-out: Average cell viability, U373, 100 ug/mL): 5% | U373 AVG ([4]; U373, sample at 1 ug/mL): 1.22 | U373 AVG ([4]; U373, sample at 10 ug/mL): 1.10 | U373 AVG ([4]; U373, sample at 50 ug/mL): 0.06 | U373 AVG ([4]; U373, sample at 100 ug/mL): 0.05 | Fold change in viability AVG ([4]; 1 ug/mL): 1.22 | Fold change in viability AVG ([4]; 10 ug/mL): 1.10 | Fold change in viability AVG ([4]; 50 ug/mL): 0.06 | Fold change in viability AVG ([4]; 100 ug/mL): 0.05 | viability at 1 µg/mL ([5]; Homo sapiens, SK-OV-3, read-out: Average cell viability, SKOV, 1 ug/mL): 126% | viability at 10 µg/mL ([5]; Homo sapiens, SK-OV-3, read-out: Average cell viability, SKOV, 10 ug/mL): 113% | viability at 50 µg/mL ([5]; Homo sapiens, SK-OV-3, read-out: Average cell viability, SKOV, 50 ug/mL): 95% | viability at 100 µg/mL ([5]; Homo sapiens, SK-OV-3, read-out: Average cell viability, SKOV, 100 ug/mL): 46% | Fold change in viability AVG ([5]; 1 ug/mL): 1.36 | Fold change in viability AVG ([5]; 10 ug/mL): 1.21 | Fold change in viability AVG ([5]; 50 ug/mL): 1.02 | Fold change in viability AVG ([5]; 100 ug/mL): 0.49 | viability at 1 µg/mL ([6]; Homo sapiens, THP-1, read-out: Average cell viability, THP-1, 1 ug/mL): 108% | viability at 10 µg/mL ([6]; Homo sapiens, THP-1, read-out: Average cell viability, THP-1, 10 ug/mL): 102% | viability at 50 µg/mL ([6]; Homo sapiens, THP-1, read-out: Average cell viability, THP-1, 50 ug/mL): 52% | viability at 100 µg/mL ([6]; Homo sapiens, THP-1, read-out: Average cell viability, THP-1, 100 ug/mL): 50% | THP-1 AVG ([6]; THP-1, sample at 1 ug/mL): 1.17 | THP-1 AVG ([6]; THP-1, sample at 10 ug/mL): 1.16 | THP-1 AVG ([6]; THP-1, sample at 50 ug/mL): 0.59 | THP-1 AVG ([6]; THP-1, sample at 100 ug/mL): 0.57 | Fold change in viability AVG ([6]; 1 ug/mL): 1.17 | Fold change in viability AVG ([6]; 10 ug/mL): 1.16 | Fold change in viability AVG ([6]; 50 ug/mL): 0.59 | Fold change in viability AVG ([6]; 100 ug/mL): 0.57 | viability at 72 h, 1 ug/mL ([7]; CCD1079SK fibroblast cells (noncancerous, proliferating), 1 ug/mL): 103% | viability at 72 h, 10 ug/mL ([7]; CCD1079SK fibroblasts (noncancerous, proliferating), 10 ug/mL): 97% | viability at 72 h, 50 ug/mL ([7]; CCD1079SK fibroblasts (noncancerous, proliferating), 50 ug/mL): 23% | viability at 72 h, 100 ug/mL ([7]; CCD1079SK fibroblasts (noncancerous, proliferating), 100 ug/mL): 17% | Fold change in viability AVG ([8]; 1 ug/mL): 1.13 | Fold change in viability AVG ([8]; 10 ug/mL): 1.06 | Fold change in viability AVG ([8]; 50 ug/mL): 0.25 | Fold change in viability AVG ([8]; 100 ug/mL): 0.19 | A549 AVG ([9]; A549, sample at 1 ug/mL): 0.72 | A549 AVG ([9]; A549, sample at 10 ug/mL): 0.65 | A549 AVG ([9]; A549, sample at 50 ug/mL): 0.64 | A549 AVG ([9]; A549, sample at 100 ug/mL): 0.40 | Fold change in viability AVG ([9]; 1 ug/mL): 0.72 | Fold change in viability AVG ([9]; 10 ug/mL): 0.65 | Fold change in viability AVG ([9]; 50 ug/mL): 0.64 | Fold change in viability AVG ([9]; 100 ug/mL): 0.40 | viability at 1 µg/mL ([9]; Homo sapiens, A549, read-out: Average cell viability, A549, 1 ug/mL): 61% | viability at 10 µg/mL ([9]; Homo sapiens, A549, read-out: Average cell viability, A549, 10 ug/mL): 56% | viability at 50 µg/mL ([9]; Homo sapiens, A549, read-out: Average cell viability, A549, 50 ug/mL): 55% | viability at 100 µg/mL ([9]; Homo sapiens, A549, read-out: Average cell viability, A549, 100 ug/mL): 34%
